From patent publication US20150111933A1, “Deuterated Thiazolidinone Analogues as Agonists for Follicle Stimulating Hormone Receptor” (Merck Patent GmbH, priority 2012, published 2015) come the findings set out here.

One data set deals with T1, FSHR (Homo sapiens, UniProt P23945).
T1 construct: expressed in transfected cells; host or cells: CHO (Cho-FSHR-LUC-1-1-43)
T1 sequence (P23945 18-695): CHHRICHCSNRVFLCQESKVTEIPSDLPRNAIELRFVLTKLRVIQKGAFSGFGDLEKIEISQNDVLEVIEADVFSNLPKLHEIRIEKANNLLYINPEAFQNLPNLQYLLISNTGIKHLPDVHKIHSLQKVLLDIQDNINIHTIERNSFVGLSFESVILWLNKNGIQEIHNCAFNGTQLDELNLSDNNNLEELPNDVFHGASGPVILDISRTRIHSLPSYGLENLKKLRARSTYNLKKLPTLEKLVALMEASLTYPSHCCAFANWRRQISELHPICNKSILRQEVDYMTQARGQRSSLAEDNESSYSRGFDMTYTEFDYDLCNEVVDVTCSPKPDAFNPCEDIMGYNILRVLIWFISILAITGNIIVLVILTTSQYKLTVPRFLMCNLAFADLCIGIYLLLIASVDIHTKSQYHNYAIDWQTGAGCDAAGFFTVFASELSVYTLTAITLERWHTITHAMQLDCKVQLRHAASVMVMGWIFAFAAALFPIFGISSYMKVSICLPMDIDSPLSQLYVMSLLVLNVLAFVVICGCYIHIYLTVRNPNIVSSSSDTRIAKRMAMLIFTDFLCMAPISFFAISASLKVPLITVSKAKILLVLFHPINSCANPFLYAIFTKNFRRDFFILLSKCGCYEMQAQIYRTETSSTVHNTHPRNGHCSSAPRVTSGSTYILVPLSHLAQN
The experiment in a line: EC50 of cyclic AMP production in CHO FSHR cells + EC20 FSH (HTRF). It is filed as cell-based. The conditions noted are these: Cho-FSHR-LUC-1-1-43 cells; for EC50: + EC20 FSH (0.265 pM), 200 μM IBMX, 1 h at 37° C., read-out: EC50 of cAMP production; for EC50 of cAMP production (% effect) / Emax: + EC20 FSH, % effect in brackets; for Emax: 1 h, read-out: EC50 of cAMP production (% effect). The method, then: EC50 of Cyclic AMP Production in CHO FSHR Cells+EC20 FSH
2500 Cho-FSHR-LUC-1-1-43 cells were plated per well in 5 μL of phenol red free DMEM/F12+1% FBS. Cells were plated in 384 well, solid white low volume plates (Greiner 784075) by Multidrop. Cells were assayed by adding […] of 2×EC20 FSH/IBMX in DMEM/F12+0.1% BSA) by Multidrop to 2 μL of test compound stamped in 384 well plates (compounds are diluted 1:50). The final FSH concentration was 0.265 pM, and the final IBMX concentration was 200 μM. The compound plate map was as follows: Column 1: 2 μL of DMSO; Column 2: 2 μL of DMSO; Columns 3-12 and 13-24: 2 μL of test compound, diluted 1:4 in 100% DMSO, or 2 μL of FSH, diluted 1:4 in DMEM/F12+0.1% BSA. The starting concentration for FSH was 50 nM (final concentration was 0.5 nM). Furthermore, Column 23 contained 2 μL of EC100 FSH reference (100×) (diluted in DMEM/F12+0.1% BSA) at a final concentration of 0.5 nM, and Column 24 contained 2 μL of 1 mM AS707664/2 reference compound 2. 5 μL of compound+EC20 FSH mixture were transferred to cell plates (1:2 dilution into 5 μL of cell media) The plates were incubated at 37° C. for 1 h. 10 μL of mixed HTRF (CisBio #62AM4PEC) reagents were added per well and incubated at room temperature for 1 h. The plates were read on Envision using the cAMP HTRF—low volume 384 well protocol. The readout was the calculated fluorescence ratio (665 nm/620 nm).
On the technique in general: Time-resolved FRET reads energy transfer from a long-lived donor to a nearby acceptor.

Data set [1] can be described thus: Intrinsic clearance (Clint) in rat liver microsomes. It is filed as in vitro ADME. To be noted: 0.5 mg/mL protein, NADPH, up to 30 min, second value of human/rat; for Clint (rat): rat liver microsomes; for microsomal CLint at 0.8 μM: rat, liver microsomes, pH 7.4, rat liver microsomes. The protocol:
(§1) Intrinsic Clearance (Clint) Assay Protocol:
(§2) A Tecan Genesis workstation (RSP 150/8) was used for to perform the microsomal incubations. Analysis was carried out using a Waters ACQUITY UPLC system coupled to an ABSciex API3000 mass spectrometer. Data analysis was performed using Assay Explorer (Symyx).
(§3) 0.1 M potassium phosphate buffer pH 7.4 containing 1 mM MgCl2 15 mM NADPH in phosphate buffer 4.4 mg protein/mL liver microsomes in phosphate buffer acetonitrile 20% DMSO in water
(§4) Each experiment consists of 12 test and 2 reference compounds. The reference compounds are incubated as a cocktail. Dilution of test compounds was done in 2 steps from a 10 mM DMSO stock solution. First 4 μL stock solution was added to 196 μL of 20% DMSO in potassium phosphate buffer pH 7.4. In a second step 10 μL of the first dilution were added to […] potassium phosphate buffer and 100 μL internal standard solution to a final concentration of 0.8 μM. 100 μL of the final compound dilution were aliquoted into a 96 deep well plate. 12.5 μL liver microsomes were added to each well (0.5 mg/mL final protein concentration) and the samples preincubated for 5 min at 37° C. and 800 rpm agitation.
(§5) After the preincubation, 250 μL cold acetonitrile were added to the 0 min samples to prevent a reaction. Following this, 12.5 μL NADPH solution were added to all wells to start the incubation, with the exception of the 0 min and 30 min controls without cofactor, where the NADPH was substituted for phosphate buffer.
(§6) The incubations were stopped after 5, 10, 20 and 30 min by adding 250 μL cold acetonitrile to the individual wells.
(§7) The quenched samples were then centrifuged at 4000 g for 1 h at 4° C. 100 μL of the supernatant were transferred into 96 well plates for analysis.
(§8) The metabolic stability of each compound was determined by measurement of the change in LC-MS/MS peak area over time. Assay Explorer software was used to automatically calculate the slope k of the decline. The intrinsic clearance (Clint) of each compound was then calculated according to the formula:
(§9) Clint (μL/min/mg protein)=k1000/protein concentration.
(In general: Microsomes from liver hold many membrane-bound enzymes, among them those of drug oxidation.)

The nature of data set [2]: Intrinsic clearance (Clint) in human liver microsomes. The data set is classed as in vitro ADME. The conditions noted are these: 0.5 mg/mL protein, NADPH, up to 30 min, first value of human/rat; for Clint (human): human liver microsomes; for microsomal CLint at 0.8 μM: human, liver microsomes, pH 7.4, human liver microsomes. The protocol: as §1, §2, §3, §4, §5, §6, §7, §8, §9

Turning to “3-((2S,5R)-4-oxo-5-(2-oxo-2-((1,1,2,2-d4-2-(3-ethoxy-4-methoxy-d3-phenyl)ethyl)amino)ethyl)-2-(2,3,5,6-d4-4-(phenylethynyl)phenyl)thiazolidin-3-yl)benzamide [Compound 15]”, on FSHR, the 50% effective concentration (EC50) – broadly, the concentration giving half of the maximal effect – came to 0.6 nM and the “EC50 of cAMP production (% effect)” value is given as “(99) %”.

Consider “3-((2S,5R)-4-oxo-5-(2-oxo-2-((2-(3,4-dimethoxyphenyl-d6l)ethyl)amino)ethyl)-2-(4-(phenylethynyl)phenyl)thiazolidin-3-yl)benzamide [Compound 7]”, for which the “Clint (rat)” value in data set [1] is reported as 44 μL/min/mg protein. Also, at FSHR, the concentration giving a half-maximal response (EC50) was determined as 0.5 nM and the “EC50 of cAMP production (% effect)” value is reported as “(99) %”. Besides, in data set [2], the “Clint (human)” value is on record as 184 μL/min/mg protein.

Take “3-((2S,5R)-5-(2-((3-ethoxy-4-methoxyphenethyl)amino)-2-oxoethyl)-4-oxo-2-(4-((phenyl-d5)ethynyl)phenyl)thiazolidin-3-yl)benzamide [Compound 8]”: the “Clint (rat)” value in data set [1] was determined as 54 μL/min/mg protein. Further, at FSHR, the EC50 came to 1.7 nM and the “EC50 of cAMP production (% effect)” value was “(99) %”. For the same compound, in data set [2], the “Clint (human)” value is listed as 188 μL/min/mg protein.

`[2H]C([2H])(NC(=O)C[C@H]1S[C@@H](c2ccc(C#Cc3ccccc3)cc2)N(c2cccc(C(N)=O)c2)C1=O)C([2H])([2H])c1ccc(O)c(OC)c1` (single isomer, unassigned) [Compound 1]: in data set [1], the microsomal CLint (in general, the rate of metabolic loss divided by the concentration) at 0.8 μM is 31 µL/min/mg. Moreover, at FSHR, the Emax came to 99% and the half-maximal effective concentration (EC50) stood at 0.87 nM. Besides, in data set [2], the microsomal CLint at 0.8 μM amounted to 67 µL/min/mg.

On to `[2H]C([2H])(NC(=O)C[C@H]1S[C@@H](c2ccc(C#Cc3ccccc3)cc2)N(c2cccc(C(N)=O)c2)C1=O)C([2H])([2H])c1ccc(OC)c(OCC)c1` (single isomer, unassigned) [Compound 4], for which, in data set [1], the microsomal CLint at 0.8 μM turned out to be 51 µL/min/mg. For the same compound, at FSHR, the Emax was 99% and the concentration for a half-maximal effect (EC50) turned out to be 0.7 nM. Further, the “Clint (human)” value in data set [2] was 191 μL/min/mg protein.

Take `[2H]C([2H])([2H])Oc1ccc(C([2H])([2H])C([2H])([2H])NC(=O)C[C@H]2S[C@@H](c3ccc(C#Cc4ccccc4)cc3)N(c3cccc(C(N)=O)c3)C2=O)cc1OCC` (single isomer, unassigned) [Compound 5]: the intrinsic clearance (microsomal CLint) at 0.8 μM in data set [1] is 45 µL/min/mg. In addition, on FSHR, the Emax came to 99% and the EC50 is 0.8 nM. Also, the microsomal CLint at 0.8 μM in data set [2] came out at 168 µL/min/mg.

In the case of `[2H]C([2H])([2H])Oc1ccc(CCNC(=O)C[C@H]2S[C@@H](c3ccc(C#Cc4ccccc4)cc3)N(c3cccc(C(N)=O)c3)C2=O)cc1OCC` (single isomer, unassigned) [Compound 6], the microsomal CLint at 0.8 μM in data set [1] is 56 µL/min/mg. Moreover, at FSHR, the Emax stood at 96% and the concentration giving a half-maximal response (EC50) was found to be 0.7 nM. Besides, the microsomal CLint at 0.8 μM in data set [2] stood at 208 µL/min/mg.

For the compound `[2H]c1c([2H])c([2H])c(C#Cc2ccc([C@@H]3S[C@H](CC(=O)NC([2H])([2H])C([2H])([2H])c4ccc(OC)c(OCC)c4)C(=O)N3c3cccc(C(N)=O)c3)cc2)c([2H])c1[2H]` (single isomer, unassigned) [Compound 9], the intrinsic metabolic clearance (microsomal CLint) at 0.8 μM in data set [1] came to 31 µL/min/mg. Further, at FSHR, the Emax stood at 97% and the EC50 turned out to be 0.3 nM. For the same compound, the intrinsic metabolic clearance (microsomal CLint) at 0.8 μM in data set [2] was found to be 181 µL/min/mg.

For the compound `[2H]c1c([2H])c([2H])c(C#Cc2ccc([C@@H]3S[C@H](CC(=O)NC([2H])([2H])C([2H])([2H])c4ccc(O)c(OC)c4)C(=O)N3c3cccc(C(N)=O)c3)cc2)c([2H])c1[2H]` (single isomer, unassigned) [Compound 11], at FSHR, the Emax was determined as 99% and the EC50 turned out to be 335 nM.

With `[2H]c1c([2H])c([C@@H]2S[C@H](CC(=O)NC([2H])([2H])C([2H])([2H])c3ccc(OC([2H])([2H])[2H])c(OCC)c3)C(=O)N2c2cccc(C(N)=O)c2)c([2H])c([2H])c1C#Cc1ccccc1` (single isomer, unassigned) [Compound 16], on FSHR, the Emax turned out to be 100% and the EC50 amounted to 0.7 nM.

For the compound `[2H]c1c([2H])c([2H])c(C#Cc2ccc([C@@H]3S[C@H](CC(=O)NCCc4ccc(O)c(O)c4)C(=O)N3c3cccc(C(N)=O)c3)cc2)c([2H])c1[2H]` [Compound 12, 3-((2S,5R)-5-(2-((3,4-dihydroxyphenethyl)amino)-2-oxoethyl)-4-oxo-2-(4-((2,3,4,5,6-phenyl-d5)ethynyl)phenyl)thiazolidin-3-yl)benzamide], on FSHR, the Emax stood at 99% and the concentration for a half-maximal effect (EC50) is 220 nM.

As to `[2H]c1c([2H])c([2H])c(C#Cc2ccc([C@@H]3S[C@H](CC(=O)NC([2H])([2H])C([2H])([2H])c4ccc(OC([2H])([2H])[2H])c(OC)c4)C(=O)N3c3cccc(C(N)=O)c3)cc2)c([2H])c1[2H]` [Compound 13, 3-((2S,5R)-4-oxo-5-(2-oxo-2-((1,1,2,2-d4-2-(3-ethoxy-4-methox-d3-yphenyl)ethyl)amino)ethyl)-2-(4-((phenyl-d5)ethynyl)phenyl)thiazolidin-3-yl)benzamide], on FSHR, the Emax was found to be 97% and the concentration giving a half-maximal response (EC50) came to 1.3 nM.

In the case of `[2H]c1c([2H])c([C@@H]2S[C@H](CC(=O)NC([2H])([2H])C([2H])([2H])c3ccc(OC([2H])([2H])[2H])c(OC([2H])([2H])[2H])c3)C(=O)N2c2cccc(C(N)=O)c2)c([2H])c([2H])c1C#Cc1ccccc1` [Compound 17, 3-((2S,5R)-4-oxo-5-(2-oxo-2-((1,1,2,2-d4-2-(3,4-dimethoxy-d6-phenyl)ethyl)amino)ethyl)-2-(2,3,5,6-d4-4-(phenylethynyl)phenyl-d5)thiazolidin-3-yl)benzamide], on FSHR, the Emax is 100% and the EC50 stood at 0.9 nM.
